Test system: CT-DNA
Assay: DNA binding by UV-visible absorption titration
Set-up: species or system calf thymus
Settings: for % H (hypochromism) / Δλ nm (red shift on DNA binding): Tris-HCl pH 7.4, 25°C; for ∆Gb° BH-I: from Kb BH-I; for ∆Gb° BH-I / ∆Gb° (BH-II) / ∆Gb° SK-I / ∆Gb° (SK-II) / ∆Gb° WS-I / ∆Gb° (WS-II): T = 298 K; for ∆Gb° (BH-II): from Kb BH-II; for ∆Gb° SK-I: from Kb SK-I; for ∆Gb° (SK-II): from Kb SK-II; for ∆Gb° WS-I: from Kb WS-I; for ∆Gb° (WS-II): from Kb WS-II
Description: The DNA-binding experiment was conducted by an electronic absorption spectrophotometer by raising the DNA concentration from zero to 50 μM to the given concentration of all samples (50 μM) in Tris-HCl buffer solution (pH: 7.4) at 25°C [6, 28, 31, 32].
UV-visible absorption titration is the main imperative approach to observing the tendency of test substances to bind with deoxyribonucleic acid. The approach is commonly utilized to evaluate the potency and mode of binding of the test substances with deoxyribonucleic acid. The essential information regarding conformational change, the effectiveness of the DNA-substance binding, and the negatively charged phosphate on deoxyribonucleic acid are neutralized via exterior contact, and intercalation through interactions between π-π stacks is presented by DNA binding towards metal complexes. All complexes (1a-2a), including the free ligand (HL), were measured in the presence and absence of deoxyribonucleic acid by ultraviolet-visible spectrophotometric titrations under Tris-HCl buffer solution (pH: 7.4) at room temperature (Figure 2). In this case, all samples were exposed to two prominent electronic absorption bands at 260 nm and 336–343 nm, consequent to the π-π^∗ transition of the phenyl chromophore and MLCT, respectively. While the amount of DNA concentration rises in each test compound, the interaction of the chemical substance with DNA base pairs generates noticeable alterations in the intraligand charge transfer bands' strength and wavelength. […] The Kb findings were measured for all samples by the Wolfe–Shimmer equations […] by methods I and II, respectively, from the findings of the slope divided by the intercept in the linear regression plots of [DNA]/(ɛa − ɛf) vs. [DNA] and the intercept divided by intercept slope in the linear regression plot of (ɛb − ɛf)/(ɛa − ɛf) vs. 1/[DNA] M^−1 (Figure S17), and the Kb results for each sample were in the subsequent sequence: (1a) > (2a) > (HL). […] It is concluded that the morpholine linked ligand's coplanarity and 2,2′-bipyridine aromatic system complexation with the metal center, which promotes the complex to infiltrate DNA base pairs smoothly, and large aromatic systems may also assist the complex to penetrate the phosphate backbone's core deeply, and those substances may permit the complex to freely penetrate deep into the deoxyribonucleic acid double helix. In addition, the observed isosbestic points are found at 256 and 276 nm for free ligand and complexes (1a-2a), respectively. […] The Wolfe–Shimmer (1 and 2), Benesi–Hildebrand (3 and 4), and Sakthi–Krause equations (5 and 6) were supported to evaluate Kb results for all samples (Table 1). The Benesi–Hildebrand binding constant (Kb) values were measured using equations (3) and (4) by methods I and II, respectively, from the intercept divided by slope in the linear regression plot of [1/(Ax − A0)] vs. {1/[DNA]} M^−1 and the intercept divided by slope in the linear regression plot of [(Amax − A0)/(Ax − A0)] vs. {1/[DNA]} M^−1 (Figure S18). The Kb values were estimated using Sakthi–Krause equations (5) and (6) by methods I and II, respectively, with the intercept divided by slope in the linear regression plot of [(A/(A0 − A)] vs. {1/[DNA]} M^−1 (Figure S19) and the antilogarithm value of the intercept in the linear regression plot of log {1/[DNA]} vs. log [(A/(A0 − A)]M^−1 (Figure S20). In addition, the Van't Hoff equation (7) was supported to obtain the ∆Gb° values for DNA interaction, and equation (8) was supported to measure the % of chromicity for all substances (Table 1). The overall measured Kb findings were in the subsequent sequence: (1a) > (2a) > (HL). In these cases, the observed ∆Gb° values were reported in the range of −19.91 to −29.13, −21.55 to −26.04 and −22.50 to –25.22 kJ·mol^−1, respectively (Table 1). In these cases, the complex (1a) had the highest DNA-binding efficacy among all binding results. […]

Oc1ccccc1N=Cc1ccc(N2CCOCC2)cc1 [(HL), 2-(4-morpholinobenzylideneamino)phenol]
% H (hypochromism): 37.13% | Δλ nm (red shift on DNA binding): 04 nm | ∆Gb° BH-I: -5.151 kcal/mol | ∆Gb° (BH-II): -5.851 kcal/mol | ∆Gb° SK-I: -5.378 kcal/mol | ∆Gb° (SK-II): -5.779 kcal/mol | ∆Gb° WS-I: -5.7 kcal/mol | ∆Gb° (WS-II): -5.712 kcal/mol

[Cu+2].[O-]c1ccccc1N=Cc1ccc(N2CCOCC2)cc1.[O-]c1ccccc1N=Cc1ccc(N2CCOCC2)cc1.c1ccc(-c2ccccn2)nc1 [(1a), [Cu(L)2(bpy)]]
% H (hypochromism): 52.18% | Δλ nm (red shift on DNA binding): 07 nm | ∆Gb° BH-I: -6.224 kcal/mol | ∆Gb° (BH-II): -5.985 kcal/mol | ∆Gb° SK-I: -5.772 kcal/mol | ∆Gb° (SK-II): -6.028 kcal/mol | ∆Gb° (WS-II): -5.918 kcal/mol

[O-]c1ccccc1N=Cc1ccc(N2CCOCC2)cc1.[O-]c1ccccc1N=Cc1ccc(N2CCOCC2)cc1.[Zn+2].c1ccc(-c2ccccn2)nc1 [(2a), [Zn(L)2(bpy)]]
% H (hypochromism): 43.15% | Δλ nm (red shift on DNA binding): 05 nm | ∆Gb° BH-I: -5.925 kcal/mol | ∆Gb° (BH-II): -5.937 kcal/mol | ∆Gb° SK-I: -5.664 kcal/mol | ∆Gb° (SK-II): -5.868 kcal/mol | ∆Gb° WS-I: -5.8114 kcal/mol | ∆Gb° (WS-II): -5.774 kcal/mol
